Laboratory results reported in US20260137642A1 (CANCER PREVENTION PHARMACEUTICALS, INC., priority 2021, published 2026).

Columns and labels:
[1] = Phase I/II trial in new onset T1D: adverse events judged possibly or probably related to drug; type: in vivo, human; settings: for Adverse events possibly or probably related to drug: Vomiting / Adverse events possibly or probably related to drug: Hematologic, Grade 1 Neutropenia / Adverse events possibly or probably related to drug: Abdominal Pain / Adverse events possibly or probably related to drug: Congestion / Adverse events possibly or probably related to drug: Cough / Adverse events possibly or probably related to drug: Diarrhea / Adverse events possibly or probably related to drug: Dizziness / Adverse events possibly or probably related to drug: Gastrointestinal (Total) / Adverse events possibly or probably related to drug: Hematologic, Anemia / Adverse events possibly or probably related to drug: Hot flashes associated with viral illness / Adverse events possibly or probably related to drug: Nausea / Adverse events possibly or probably related to drug: Nausea with IV placement / Adverse events possibly or probably related to drug: Neurologic, Headache / Adverse events possibly or probably related to drug: Other Viral Illness / Adverse events possibly or probably related to drug: Other infectious/immune, Pump site infection / Adverse events possibly or probably related to drug: Other, Hypoglycemia / Adverse events possibly or probably related to drug: Other, Urticaria/anaphylaxis / Adverse events possibly or probably related to drug: URI: daily oral; for Adverse events possibly or probably related to drug: Hematologic, Grade 1 Neutropenia: neutrophil count < lower limit of normal but above 1500/mm^3
Text: The primary efficacy measure was changes in pro-insulin to C-peptide ratios as a marker of β cell ER stress. The secondary objectives of the study were to elucidate the relationship between primary dose and markers of endoplasmic reticulum (ER) stress, polyamine concentrations, glycemic, and immunologic outcomes in persons with new onset T1D, and to characterize the dietary polyamine intake and urinary polyamine excretion of persons with recent-onset T1D. Secondary efficacy measures included other biomarkers of β cell stress, stimulated C-peptide values, and changes in T-cell subsets. This study was double-blind, placebo-controlled, 2:1 random assigned, phase I/II clinic trial for individuals with type 1 diabetes. The blinded dose-ranging study enrolled persons with new onset T1D with documented continued residual C-peptide production. […] After a 3 month wash-out period, the durability of effect was assessed. […] Males and females 12-40 years of age with a clinical diagnosis of T1D within 2-8 months of the time of visit 2; 2. […] Positive for any one of the following diabetes-related autoantibodies (mIAA, GADA, IA-2A, or ZnT8A); 4. Treatment naïve of any immunomodulatory agent; 5. […] Presence of any psychiatric disorder that will affect ability to participate in study, including psychiatric impairment or current use of anti-psychotic medication; 3. […] Chronic illness known to affect glucose metabolism (e.g. Cushing syndrome, polycystic ovarian disorder, cystic fibrosis) or taking medications that affect glucose metabolism (e.g. steroids, metformin); 5. Inability to swallow pills; 6. Hematologic abnormalities at screening (anemia, leukopenia (particularly neutropenia), or thrombocytopenia); 7. […] Female participants of child-bearing age must not be pregnant and agree to use an effective form of birth control or be abstinent during the study period; 9. BMI >95% for age and sex. […] The enrollment cohorts were as follows: […] [table] […] Possible drug-related expected AEs included mild-moderate nausea/vomiting/abdominal pain and diarrhea, moderate headache, upper respiratory infections, a pump site infection, and mild anemia. […] Adverse events judges by masked study investigators as possibly or probably related to drug are showing in Table 3.

urinary polyamines = experiment: Phase I/II trial in new onset T1D: urinary polyamines (first morning urine, HPLC); type: in vivo, human; settings: 3 months
Description: This study was double-blind, placebo-controlled, 2:1 random assigned, phase I/II clinic trial for individuals with type 1 diabetes. The blinded dose-ranging study enrolled persons with new onset T1D with documented continued residual C-peptide production. […] After a 3 month wash-out period, the durability of effect was assessed. [table]

islet replication = settings: in vitro; cited from earlier work

NCCCC(N)(C(=O)O)C(F)F (centres unmarked) [eflornithine, 2,5-diamino-2-(difluoromethyl) pentanoic acid]
Adverse events possibly or probably related to drug: Vomiting ([1]; 500 mg/m^2 (n = 6)): 0 | Adverse events possibly or probably related to drug: Hematologic, Grade 1 Neutropenia ([1]; 500 mg/m^2 (n = 6)): 0 | Adverse events possibly or probably related to drug: Abdominal Pain ([1]; 750 mg/m^2 (n = 7)): 2 | Adverse events possibly or probably related to drug: Congestion ([1]; 750 mg/m^2 (n = 7)): 2 | Adverse events possibly or probably related to drug: Cough ([1]; 750 mg/m^2 (n = 7)): 0 | Adverse events possibly or probably related to drug: Diarrhea ([1]; 750 mg/m^2 (n = 7)): 0 | Adverse events possibly or probably related to drug: Dizziness ([1]; 750 mg/m^2 (n = 7)): 2 | Adverse events possibly or probably related to drug: Gastrointestinal (Total) ([1]; 750 mg/m^2 (n = 7)): 5 | Adverse events possibly or probably related to drug: Hematologic, Anemia ([1]; 750 mg/m^2 (n = 7)): 1 | Adverse events possibly or probably related to drug: Hot flashes associated with viral illness ([1]; 750 mg/m^2 (n = 7)): 0 | Adverse events possibly or probably related to drug: Nausea ([1]; 750 mg/m^2 (n = 7)): 3 | Adverse events possibly or probably related to drug: Nausea with IV placement ([1]; 750 mg/m^2 (n = 7)): 1 | Adverse events possibly or probably related to drug: Neurologic, Headache ([1]; 750 mg/m^2 (n = 7)): 0 | Adverse events possibly or probably related to drug: Other Viral Illness ([1]; 750 mg/m^2 (n = 7)): 1 | Adverse events possibly or probably related to drug: Other infectious/immune, Pump site infection ([1]; 750 mg/m^2 (n = 7)): 0 | Adverse events possibly or probably related to drug: Other, Hypoglycemia ([1]; 750 mg/m^2 (n = 7)): 0 | Adverse events possibly or probably related to drug: Other, Urticaria/anaphylaxis ([1]; 750 mg/m^2 (n = 7)): 1 | Adverse events possibly or probably related to drug: URI ([1]; 750 mg/m^2 (n = 7)): 2 | Adverse events possibly or probably related to drug: Vomiting ([1]; 750 mg/m^2 (n = 7)): 0 | Adverse events possibly or probably related to drug: Hematologic, Grade 1 Neutropenia ([1]; 750 mg/m^2 (n = 7)): 0 | Adverse events possibly or probably related to drug: Abdominal Pain ([1]; 1000 mg/m^2 (n = 6)): 1 | Adverse events possibly or probably related to drug: Congestion ([1]; 1000 mg/m^2 (n = 6)): 1 | Adverse events possibly or probably related to drug: Cough ([1]; 1000 mg/m^2 (n = 6)): 1 | Adverse events possibly or probably related to drug: Diarrhea ([1]; 1000 mg/m^2 (n = 6)): 0 | Adverse events possibly or probably related to drug: Dizziness ([1]; 1000 mg/m^2 (n = 6)): 0 | Adverse events possibly or probably related to drug: Gastrointestinal (Total) ([1]; 1000 mg/m^2 (n = 6)): 2 | Adverse events possibly or probably related to drug: Hematologic, Anemia ([1]; 1000 mg/m^2 (n = 6)): 2 | Adverse events possibly or probably related to drug: Hot flashes associated with viral illness ([1]; 1000 mg/m^2 (n = 6)): 1 | Adverse events possibly or probably related to drug: Nausea ([1]; 1000 mg/m^2 (n = 6)): 1 | Adverse events possibly or probably related to drug: Nausea with IV placement ([1]; 1000 mg/m^2 (n = 6)): 0 | Adverse events possibly or probably related to drug: Neurologic, Headache ([1]; 1000 mg/m^2 (n = 6)): 2 | Adverse events possibly or probably related to drug: Other Viral Illness ([1]; 1000 mg/m^2 (n = 6)): 0 | Adverse events possibly or probably related to drug: Other infectious/immune, Pump site infection ([1]; 1000 mg/m^2 (n = 6)): 1 | Adverse events possibly or probably related to drug: Other, Hypoglycemia ([1]; 1000 mg/m^2 (n = 6)): 0 | Adverse events possibly or probably related to drug: Other, Urticaria/anaphylaxis ([1]; 1000 mg/m^2 (n = 6)): 0 | Adverse events possibly or probably related to drug: URI ([1]; 1000 mg/m^2 (n = 6)): 2 | Adverse events possibly or probably related to drug: Vomiting ([1]; 1000 mg/m^2 (n = 6)): 0 | Adverse events possibly or probably related to drug: Hematologic, Grade 1 Neutropenia ([1]; 1000 mg/m^2 (n = 6)): 0 | Tolerability ([1]; 3-month course of oral eflornithine, children and adults with recent-onset T1D): well tolerated with a favorable AE profile | Severity of adverse events noted ([1]; daily oral doses of 125, 250, 500, 750, and 1000 mg/m^2, drug or placebo): Mild and moderate AEs | Unexpected drug-related effects ([1]; individuals on active drug, daily oral doses of 125, 250, 500, 750, and 1000 mg/m^2): No unexpected effects judged related to drug | Change in urinary polyamines with increasing drug dose across groups (urinary polyamines; 125-1000 mg/m^2): Decreases in urinary polyamines | 3-month urinary Decarboxylated AdoMet, Least Square Means (urinary polyamines; Drug Dose 125): 133.0 µmol/g | 3-month urinary Putrescine, Least Square Means (urinary polyamines; Drug Dose 125): 127.9 µmol/g | 3-month urinary Decarboxylated AdoMet, Least Square Means (urinary polyamines; Drug Dose 250): 87.7 µmol/g | 3-month urinary Putrescine, Least Square Means (urinary polyamines; Drug Dose 250): 78.0 µmol/g | 3-month urinary Decarboxylated AdoMet, Least Square Means (urinary polyamines; Drug Dose 500): 114.3 µmol/g | 3-month urinary Putrescine, Least Square Means (urinary polyamines; Drug Dose 500): 41.8 µmol/g | 3-month urinary Decarboxylated AdoMet, Least Square Means (urinary polyamines; Drug Dose 750): 116.0 µmol/g | 3-month urinary Putrescine, Least Square Means (urinary polyamines; Drug Dose 750): 56.6 µmol/g | 3-month urinary Decarboxylated AdoMet, Least Square Means (urinary polyamines; Drug Dose 1000): 165.7 µmol/g | 3-month urinary Putrescine, Least Square Means (urinary polyamines; Drug Dose 1000): 35.7 µmol/g | Effect on islet replication (islet replication): little effect on islet replication
